Assay [1] concerns the target T1, Estrogen receptor beta (Homo sapiens, UniProt Q92731). Nature of the assay: Displacement of [3H]estradiol from human recombinant ERbeta.
For assay [2], the target named is T1, Estrogen receptor beta. The experiment in a line: Displacement of [3H]estradiol from human recombinant ERbeta relative to estradiol. (In a radioligand displacement assay an active substance lowers the binding of a labelled ligand.)
The target in a further assay is T2, Estrogen receptor (Homo sapiens, UniProt P03372).
T2 sequence (P03372 whole entry): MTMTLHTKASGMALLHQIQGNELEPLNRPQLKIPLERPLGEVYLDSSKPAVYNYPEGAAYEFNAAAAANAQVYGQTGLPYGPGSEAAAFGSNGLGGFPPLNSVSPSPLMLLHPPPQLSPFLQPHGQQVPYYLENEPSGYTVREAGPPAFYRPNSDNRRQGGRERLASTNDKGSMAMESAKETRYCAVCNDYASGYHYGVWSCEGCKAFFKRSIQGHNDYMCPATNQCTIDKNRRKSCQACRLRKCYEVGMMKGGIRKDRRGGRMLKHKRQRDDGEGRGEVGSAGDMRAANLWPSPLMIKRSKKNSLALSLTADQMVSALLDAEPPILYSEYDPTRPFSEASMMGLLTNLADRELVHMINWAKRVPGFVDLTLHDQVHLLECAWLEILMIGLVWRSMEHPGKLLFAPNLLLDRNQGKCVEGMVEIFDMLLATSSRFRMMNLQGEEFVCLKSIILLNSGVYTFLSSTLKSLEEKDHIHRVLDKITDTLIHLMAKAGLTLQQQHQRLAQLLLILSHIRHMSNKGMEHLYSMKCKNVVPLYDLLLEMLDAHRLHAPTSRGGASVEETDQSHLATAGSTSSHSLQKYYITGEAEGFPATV

The species entered for another assay is Homo sapiens. Nature of the assay: Selectivity for human ERalpha over human ERbeta.

The record followed here is ChEMBL document CHEMBL1143673, “Benzothiophene selective estrogen receptor modulators with modulated oxidative activity and receptor affinity” (J Med Chem, 2007).

What is called IC50 is the concentration needed to halve the response being measured.

T1 sequence (Q92731 whole entry): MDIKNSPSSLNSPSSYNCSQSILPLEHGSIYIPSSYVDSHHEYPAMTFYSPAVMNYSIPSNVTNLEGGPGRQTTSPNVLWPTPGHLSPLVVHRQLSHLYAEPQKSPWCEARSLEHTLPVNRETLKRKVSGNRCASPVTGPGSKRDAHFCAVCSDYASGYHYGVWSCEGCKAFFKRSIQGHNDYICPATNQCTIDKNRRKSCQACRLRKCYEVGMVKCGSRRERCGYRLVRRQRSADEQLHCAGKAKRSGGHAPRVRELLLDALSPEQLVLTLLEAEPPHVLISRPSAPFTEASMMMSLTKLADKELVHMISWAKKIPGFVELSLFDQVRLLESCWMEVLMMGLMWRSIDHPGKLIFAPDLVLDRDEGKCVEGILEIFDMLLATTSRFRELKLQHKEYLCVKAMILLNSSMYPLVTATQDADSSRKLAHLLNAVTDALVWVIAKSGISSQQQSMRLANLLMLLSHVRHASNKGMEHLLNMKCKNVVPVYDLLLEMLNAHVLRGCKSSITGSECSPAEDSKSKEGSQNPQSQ

Consider `Oc1ccc2c(Oc3ccc(OCCN4CCCCC4)cc3)c(-c3ccc(NCCCl)cc3)sc2c1`, for which the IC50 at Estrogen receptor beta [1] is > 1600 nM; at Estrogen receptor, 35.6 nM. At Estrogen receptor beta [2], the relative binding affinity (RBA) is < 0.01. Besides, the Ratio in the assay listed under Homo sapiens was > 50.
Take `Nc1ccc(-c2sc3cc(O)ccc3c2Oc2ccc(OCCN3CCCCC3)cc2)cc1`: the IC50 was 48.6 nM on Estrogen receptor beta [1] and 19.3 nM against Estrogen receptor. The relative binding affinity (RBA) on Estrogen receptor beta [2] is 0.34. Moreover, the Ratio in the assay listed under Homo sapiens came out at 2.8.
For `Oc1ccc2c(Oc3ccc(OCCN4CCCCC4)cc3)c(-c3ccccc3)sc2c1` the same measures were 16.3 nM, 10.9 nM, 1 and 1.7.
Take `Oc1ccc2c(Oc3ccc(OCCN4CCCCC4)cc3)c(-c3ccc(F)cc3)sc2c1`: the figures for the IC50 at Estrogen receptor beta [1] and against Estrogen receptor were 27.9 nM and 17.2 nM, respectively. Further, the relative binding affinity (RBA) at Estrogen receptor beta [2] is 0.68. Further, the Ratio in the assay filed under Homo sapiens stood at 1.6.
For the molecule `Oc1ccc2c(Oc3ccc(OCCN4CCCCC4)cc3)c(-c3ccc(Br)cc3)sc2c1`, the figures for the IC50 at Estrogen receptor beta [1] and on Estrogen receptor were 66.7 nM and 27 nM, respectively. The relative binding affinity (RBA) on Estrogen receptor beta [2] amounted to 0.25. The Ratio in the assay filed under Homo sapiens turned out to be 2.8.
On to `O=C(CCl)Nc1ccc(-c2sc3cc(O)ccc3c2Oc2ccc(OCCN3CCCCC3)cc2)cc1`, for which the IC50 on Estrogen receptor beta [1] came to 2360 nM; against Estrogen receptor, 666 nM. At Estrogen receptor beta [2], the relative binding affinity (RBA) came out at 0.007. The Ratio in the assay listed under Homo sapiens turned out to be 4.3.
As to `COc1ccc(-c2sc3cc(O)ccc3c2Oc2ccc(OCCN3CCCCC3)cc2)cc1`, the relative binding affinity (RBA) at Estrogen receptor beta [2] came out at 0.25.
Turning to `Oc1ccc(-c2sc3cc(O)ccc3c2Oc2ccc(OCCN3CCCCC3)cc2)cc1`, the IC50 at Estrogen receptor beta [1] was determined as 9.6 nM. In addition, the relative binding affinity (RBA) at Estrogen receptor beta [2] came out at 1.77.
In the case of `CS(=O)(=O)c1ccc(-c2sc3cc(O)ccc3c2Oc2ccc(OCCN3CCCCC3)cc2)cc1`, the values for the IC50 at Estrogen receptor beta [1] and on Estrogen receptor were 1800 nM and 27 nM, respectively. The relative binding affinity (RBA) at Estrogen receptor beta [2] is 0.009. The Ratio in the assay filed under Homo sapiens amounted to 79.
